According to patent US8962596B2 (Array BioPharma Inc., priority 2010, dated 2015):

What was measured:
Type in all cases: biochemical
Human Tyk2 kinase domain = target: T1, Human Tyk2 kinase domain (Homo sapiens, UniProt P29597); experiment: Tyk2 Inhibition Assay (Omnia kinase fluorescence peptide substrate assay); conditions: averaged IC50 ranges; assay of Example A; 10 μM (Km app) or 1 mM ATP, 2 nM Tyk2
T1 construct: comprising amino acids 886 to 1187 with 10 additional histidine residues; 10xHis (histidine tag) (C, cleaved yes); made in house
T1 sequence (P29597 886-1187): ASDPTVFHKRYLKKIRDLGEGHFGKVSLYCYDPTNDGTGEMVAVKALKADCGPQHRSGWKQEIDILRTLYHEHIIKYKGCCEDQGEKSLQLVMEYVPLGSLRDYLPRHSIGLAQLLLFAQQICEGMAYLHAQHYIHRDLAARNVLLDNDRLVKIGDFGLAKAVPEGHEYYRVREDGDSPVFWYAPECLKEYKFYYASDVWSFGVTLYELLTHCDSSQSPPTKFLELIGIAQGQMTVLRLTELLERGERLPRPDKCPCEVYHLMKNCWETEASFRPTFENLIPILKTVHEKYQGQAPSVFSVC
Summary of the method: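 2 nM His-tag-cleaved kinase domain (aa 886–1187) with 8 μM Omnia Y12 peptide, 10 μM (Km app) or 1 mM ATP, pH 7.4 HEPES/10 mM MgCl2, 2% DMSO. Fluorescence (ex 360/em 485 nm) every 50 s for 45 min; IC50 from 4-parameter fit of POC, top dose 10 μM.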

JAK1 = target: T2, JAK1 (Homo sapiens, UniProt P23458); experiment: JAK1 Inhibition Assay (Omnia kinase fluorescence peptide substrate assay); conditions: averaged IC50 ranges; assay of Example B; 40 μM (Km app) or 1 mM ATP, 15 nM JAK1
T2 construct: purchased Invitrogen Corporation, Carlsbad, Calif; PV4775

JAK2 = target: T3, JAK2 (Homo sapiens, UniProt O60674); experiment: JAK2 Inhibition Assay (Omnia kinase fluorescence peptide substrate assay); conditions: averaged IC50 ranges; assay of Example C; 25 μM (Km app) or 1 mM ATP, 5 nM JAK2
T3 construct: purchased Invitrogen Corporation, Carlsbad, Calif; PV4288
Summary of the method: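 5 nM JAK2 phosphorylated 10 μM Omnia Y7 peptide with ATP at 25 μM (Km app) or 1 mM, in 25 mM HEPES pH 7.4, 10 mM MgCl2, 0.01% Triton X-100, 1 mM DTT, 2% DMSO. Fluorescence (360/485 nm) was read every 50 s for 45 min. 10-point 3-fold series from 10 μM; POC versus uninhibited and background controls, 4-parameter logistic IC50.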

JAK3 = target: T4, JAK3 (Homo sapiens, UniProt P52333); experiment: JAK3 Inhibition Assay (Omnia kinase fluorescence peptide substrate assay); conditions: averaged IC50 ranges; assay of Example D; 10 μM (Km app) or 1 mM ATP, 2.5 nM JAK3
T4 construct: purchased Invitrogen Corporation, Carlsbad, Calif; PV4080
T4 sequence (P52333 1-1124): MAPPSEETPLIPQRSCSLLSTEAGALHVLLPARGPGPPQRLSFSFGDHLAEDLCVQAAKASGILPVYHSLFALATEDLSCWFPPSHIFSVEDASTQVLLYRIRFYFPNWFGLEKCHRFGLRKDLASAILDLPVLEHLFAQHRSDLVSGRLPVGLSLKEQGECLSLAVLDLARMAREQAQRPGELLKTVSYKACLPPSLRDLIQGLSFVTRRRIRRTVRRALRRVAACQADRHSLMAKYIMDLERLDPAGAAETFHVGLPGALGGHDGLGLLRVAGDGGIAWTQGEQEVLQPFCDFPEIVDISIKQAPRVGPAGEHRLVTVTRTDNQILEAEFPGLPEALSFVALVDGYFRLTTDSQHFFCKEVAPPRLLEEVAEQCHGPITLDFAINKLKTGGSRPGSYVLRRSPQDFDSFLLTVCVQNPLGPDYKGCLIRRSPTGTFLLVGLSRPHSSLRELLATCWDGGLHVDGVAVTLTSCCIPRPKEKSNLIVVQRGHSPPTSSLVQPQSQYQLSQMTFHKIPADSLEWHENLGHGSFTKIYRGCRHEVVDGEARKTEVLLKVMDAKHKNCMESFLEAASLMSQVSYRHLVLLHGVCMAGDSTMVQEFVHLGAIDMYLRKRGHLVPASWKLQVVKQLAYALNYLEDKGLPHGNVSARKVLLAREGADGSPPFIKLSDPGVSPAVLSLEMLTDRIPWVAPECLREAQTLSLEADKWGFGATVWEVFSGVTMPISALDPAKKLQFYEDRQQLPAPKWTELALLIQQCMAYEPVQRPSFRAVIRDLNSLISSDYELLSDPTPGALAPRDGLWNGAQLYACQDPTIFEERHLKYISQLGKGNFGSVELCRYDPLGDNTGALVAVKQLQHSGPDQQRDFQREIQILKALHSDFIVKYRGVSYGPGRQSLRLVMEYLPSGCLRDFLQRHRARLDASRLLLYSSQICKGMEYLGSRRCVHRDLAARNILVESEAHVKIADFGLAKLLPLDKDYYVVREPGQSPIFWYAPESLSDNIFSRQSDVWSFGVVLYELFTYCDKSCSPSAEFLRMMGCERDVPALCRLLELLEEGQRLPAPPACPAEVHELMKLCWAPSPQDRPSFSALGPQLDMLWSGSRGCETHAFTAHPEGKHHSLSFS
Summary of the method: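 Kinase at 2.5 nM with 10 µM Omnia Y7 peptide and 10 µM (Km app) or 1 mM ATP in 25 mM HEPES pH 7.4, 10 mM MgCl2, 1 mM DTT, 0.01% Triton X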

T2 sequence (P23458 whole entry): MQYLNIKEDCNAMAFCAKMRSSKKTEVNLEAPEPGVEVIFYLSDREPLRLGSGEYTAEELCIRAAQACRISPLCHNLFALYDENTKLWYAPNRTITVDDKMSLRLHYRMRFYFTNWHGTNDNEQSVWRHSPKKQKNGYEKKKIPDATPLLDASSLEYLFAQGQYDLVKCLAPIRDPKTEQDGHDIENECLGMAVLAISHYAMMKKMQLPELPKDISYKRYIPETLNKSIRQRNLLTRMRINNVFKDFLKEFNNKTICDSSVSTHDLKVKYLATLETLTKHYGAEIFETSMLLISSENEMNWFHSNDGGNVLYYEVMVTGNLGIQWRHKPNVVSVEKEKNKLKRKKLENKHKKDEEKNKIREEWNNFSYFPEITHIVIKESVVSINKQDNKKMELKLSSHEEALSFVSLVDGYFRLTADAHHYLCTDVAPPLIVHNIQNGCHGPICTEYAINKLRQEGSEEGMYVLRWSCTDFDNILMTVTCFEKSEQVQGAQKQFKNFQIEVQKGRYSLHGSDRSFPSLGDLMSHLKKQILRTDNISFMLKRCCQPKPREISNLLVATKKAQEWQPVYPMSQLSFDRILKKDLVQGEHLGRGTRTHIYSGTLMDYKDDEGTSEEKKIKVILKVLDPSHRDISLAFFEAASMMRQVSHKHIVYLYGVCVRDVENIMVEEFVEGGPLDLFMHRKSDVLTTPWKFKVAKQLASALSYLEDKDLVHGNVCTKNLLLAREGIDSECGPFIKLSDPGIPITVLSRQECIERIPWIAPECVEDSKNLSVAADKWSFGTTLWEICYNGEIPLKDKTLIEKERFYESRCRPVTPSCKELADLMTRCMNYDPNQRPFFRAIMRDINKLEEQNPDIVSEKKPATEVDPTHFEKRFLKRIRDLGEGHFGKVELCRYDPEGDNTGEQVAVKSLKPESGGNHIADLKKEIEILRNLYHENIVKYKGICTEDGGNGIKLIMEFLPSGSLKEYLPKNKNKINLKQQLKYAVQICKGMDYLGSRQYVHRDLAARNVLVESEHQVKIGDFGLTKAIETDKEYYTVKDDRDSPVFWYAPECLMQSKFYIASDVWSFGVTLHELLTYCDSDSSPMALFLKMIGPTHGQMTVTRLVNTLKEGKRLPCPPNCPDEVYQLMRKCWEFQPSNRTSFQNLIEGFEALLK
T3 sequence (O60674 whole entry): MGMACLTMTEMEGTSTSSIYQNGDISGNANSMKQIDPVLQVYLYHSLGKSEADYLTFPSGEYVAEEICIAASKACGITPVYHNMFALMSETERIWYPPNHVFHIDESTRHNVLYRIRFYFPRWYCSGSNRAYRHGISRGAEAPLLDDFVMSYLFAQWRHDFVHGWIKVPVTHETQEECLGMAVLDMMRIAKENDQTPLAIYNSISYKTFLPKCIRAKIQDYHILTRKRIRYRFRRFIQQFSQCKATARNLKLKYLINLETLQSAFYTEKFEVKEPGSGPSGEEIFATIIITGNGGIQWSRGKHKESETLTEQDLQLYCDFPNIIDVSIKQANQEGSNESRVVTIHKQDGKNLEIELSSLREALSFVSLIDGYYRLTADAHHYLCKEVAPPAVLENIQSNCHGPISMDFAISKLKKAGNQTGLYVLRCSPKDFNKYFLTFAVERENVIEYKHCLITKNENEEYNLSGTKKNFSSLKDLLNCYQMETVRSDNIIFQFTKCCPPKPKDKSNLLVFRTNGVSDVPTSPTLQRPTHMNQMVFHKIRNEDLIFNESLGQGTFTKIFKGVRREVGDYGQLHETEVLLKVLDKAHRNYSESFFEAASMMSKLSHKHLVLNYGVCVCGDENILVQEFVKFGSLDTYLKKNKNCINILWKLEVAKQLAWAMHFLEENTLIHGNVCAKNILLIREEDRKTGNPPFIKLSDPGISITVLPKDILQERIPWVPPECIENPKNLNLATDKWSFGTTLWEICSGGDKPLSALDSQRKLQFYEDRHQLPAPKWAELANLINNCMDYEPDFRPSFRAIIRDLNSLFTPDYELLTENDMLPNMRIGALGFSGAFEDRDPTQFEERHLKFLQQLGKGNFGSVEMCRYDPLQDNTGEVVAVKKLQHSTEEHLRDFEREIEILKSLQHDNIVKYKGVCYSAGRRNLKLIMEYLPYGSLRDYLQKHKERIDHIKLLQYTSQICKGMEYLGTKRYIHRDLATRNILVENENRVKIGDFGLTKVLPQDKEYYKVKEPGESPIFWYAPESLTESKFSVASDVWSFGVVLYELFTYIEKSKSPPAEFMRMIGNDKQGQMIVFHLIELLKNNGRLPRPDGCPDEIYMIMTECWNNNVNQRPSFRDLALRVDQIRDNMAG

| SMILES | IC50 (Human Tyk2 kinase domain) | IC50 (JAK1) | IC50 (JAK2) | IC50 (JAK3) |
| --- | --- | --- | --- | --- |
| CCCS(=O)(=O)N1CC(CC#N)(n2cc(-c3nc(-c4cnn(C)c4)cc4nccn34)cn2)C1 [Example 93, 2-(3-(4-(7-(1-methyl-1H-pyrazol-4-yl)imidazo[1,2-c]pyrimidin-5-yl)-1H-pyrazol-1-yl)-1-(propylsulfonyl)azetidin-3-yl)acetonitrile] | < 10 nM | 100 to 1000 nM | 100 to 1000 nM | > 1000 nM |
| CCN1CCC(CC#N)(n2cc(-c3nc(-c4cnn(C)c4)cc4nccn34)cn2)CC1 [Example 29, 2-(1-ethyl-4-(4-(7-(1-methyl-1H-pyrazol-4-yl)imidazo[1,2-c]pyrimidin-5-yl)-1H-pyrazol-1-yl)piperidin-4-yl)acetonitrile] | 100 to 1000 nM | > 1000 nM | > 1000 nM | > 1000 nM |
| Cn1cc(-c2cc3nccn3c(-c3cnn(C(CC#N)C4CCC4)c3)n2)cn1 (stereo not shown) [Example 20, 3-cyclobutyl-3-(4-(7-(1-methyl-1H-pyrazol-4-yl)imidazo[1,2-c]pyrimidin-5-yl)-1H-pyrazol-1-yl)propanenitrile] | < 10 nM | 10 to 100 nM | 10 to 100 nM | > 1000 nM |
| Cn1cc(-c2cc3nccn3c(-c3cnn(C4(CC#N)CN(CC(F)(F)C(F)(F)F)C4)c3)n2)cn1 [Example 70, 2-(3-(4-(7-(1-Methyl-1H-pyrazol-4-yl)imidazo[1,2-c]pyrimidin-5-yl)-1H-pyrazol-1-yl)-1-(2,2,3,3,3-pentafluoropropyl)azetidin-3-yl)acetonitrile] | < 10 nM | 10 to 100 nM | 10 to 100 nM | 100 to 1000 nM |
| N#CCC1(n2cc(-c3nc(-c4cnn(C5COC5)c4)cc4ncc(Cl)n34)cn2)CN(CC(F)(F)F)C1 [Example 153, 2-(3-(4-(3-chloro-7-(1-(oxetan-3-yl)-1H-pyrazol-4-yl)imidazo[1,2-c]pyrimidin-5-yl)-1H-pyrazol-1-yl)-1-(2,2,2-trifluoroethyl)azetidin-3-yl)acetonitrile] | < 10 nM | 100 to 1000 nM | 10 to 100 nM | 100 to 1000 nM |
| Cc1nn(C2(CC#N)CN(CC(F)(F)F)C2)cc1-c1nc(-c2cnn(C)c2)cc2nccn12 [Example 108, 2-(3-(3-methyl-4-(7-(1-methyl-1H-pyrazol-4-yl)imidazo[1,2-c]pyrimidin-5-yl)-1H-pyrazol-1-yl)-1-(2,2,2-trifluoroethyl)azetidin-3-yl)acetonitrile] | 10 to 100 nM | > 1000 nM | 100 to 1000 nM | > 1000 nM |
| CC(C#N)Cn1cc(-c2nc(-c3ccc(N4CCOCC4)cc3)cc3nccn23)cn1 (stereo not shown) [Example 119, 2-methyl-3-(4-(7-(4-morpholinophenyl)imidazo[1,2-c]pyrimidin-5-yl)-1H-pyrazol-1-yl)propanenitrile] | 10 to 100 nM | 10 to 100 nM | 10 to 100 nM | 100 to 1000 nM |
| Cn1ccc(-c2cc3nccn3c(-c3ccn(C4(CC#N)CN(CC(F)(F)F)C4)n3)n2)cc1=O [Example 144, 2-(3-(3-(7-(1-methyl-2-oxo-1,2-dihydropyridin-4-yl)imidazo[1,2-c]pyrimidin-5-yl)-1H-pyrazol-1-yl)-1-(2,2,2-trifluoroethyl)azetidin-3-yl)acetonitrile] | 10 to 100 nM | > 1000 nM | 100 to 1000 nM | > 1000 nM |
| Cn1cc(-c2cc3nccn3c(-c3cnn(C4(CC#N)CN(CCC(F)(F)F)C4)c3)n2)cn1 [Example 86, 2-(3-(4-(7-(1-methyl-1H-pyrazol-4-yl)imidazo[1,2-c]pyrimidin-5-yl)-1H-pyrazol-1-yl)-1-(3,3,3-trifluoropropyl)azetidin-3-yl)acetonitrile] | 10 to 100 nM | 100 to 1000 nM | 100 to 1000 nM | > 1000 nM |
| CN1CCc2cc(-c3cc4nccn4c(-c4cnn(C(CC#N)C5CC5)c4)n3)ccc2C1 (stereo not shown) [Example 53, 3-Cyclopropyl-3-(4-(7-(2-methyl-1,2,3,4-tetrahydroisoquinolin-6-yl)imidazo[1,2-c]pyrimidin-5-yl)-1H-pyrazol-1-yl)propanenitrile] | 10 to 100 nM | 10 to 100 nM | 10 to 100 nM | 100 to 1000 nM |
| Cn1cc(-c2cc3nccn3c(-c3cnn(C(CC#N)c4cncc(Br)c4)c3)n2)cn1 (stereo not shown) [Example 10, 3-(5-bromopyridin-3-yl)-3-(4-(7-(1-methyl-1H-pyrazol-4-yl)imidazo[1,2-c]pyrimidin-5-yl)-1H-pyrazol-1-yl)propanenitrile] | < 10 nM | 10 to 100 nM | 10 to 100 nM | 100 to 1000 nM |
| CCN1CC(CC#N)(n2cc(-c3nc(-c4cnn(C)c4)cc4nccn34)cn2)C1 [Example 72, 2-(1-ethyl-3-(4-(7-(1-methyl-1H-pyrazol-4-yl)imidazo[1,2-c]pyrimidin-5-yl)-1H-pyrazol-1-yl)azetidin-3-yl)acetonitrile] | 10 to 100 nM | > 1000 nM | 100 to 1000 nM | > 1000 nM |
| Cn1cc(-c2cc3ncc(Cl)n3c(-c3cnn(C(CC#N)C4CC4)c3)n2)cn1 (stereo not shown) [Example 25, 3-(4-(3-chloro-7-(1-methyl-1H-pyrazol-4-yl)imidazo[1,2-c]pyrimidin-5-yl)-1H-pyrazol-1-yl)-3-cyclopropylpropanenitrile] | < 10 nM | 10 to 100 nM | 10 to 100 nM | 100 to 1000 nM |
| CC(C)S(=O)(=O)N1CC(CC#N)(n2cc(-c3nc(-c4cnn(C)c4)cc4nccn34)cn2)C1 [Example 91, 2-(1-(Isopropylsulfonyl)-3-(4-(7-(1-methyl-1H-pyrazol-4-yl)imidazo[1,2-c]pyrimidin-5-yl)-1H-pyrazol-1-yl)azetidin-3-yl)acetonitrile] | 10 to 100 nM | 100 to 1000 nM | 100 to 1000 nM | > 1000 nM |
| Cn1cc(-c2cc3nccn3c(-c3cnn(C4(CC#N)CN(CC(F)(F)C(F)F)C4)c3)n2)cn1 [Example 80, 2-(3-(4-(7-(1-methyl-1H-pyrazol-4-yl)imidazo[1,2-c]pyrimidin-5-yl)-1H-pyrazol-1-yl)-1-(2,2,3,3-tetrafluoropropyl)azetidin-3-yl)acetonitrile] | < 10 nM | 100 to 1000 nM | 10 to 100 nM | > 1000 nM |
| N#CCC(C1CC1)n1cc(-c2nc(-c3ccc4c(c3)CCNC4)cc3nccn23)cn1 (stereo not shown) [Example 52, 3-Cyclopropyl-3-(4-(7-(1,2,3,4-tetrahydroisoquinolin-6-yl)imidazo[1,2-c]pyrimidin-5-yl)-1H-pyrazol-1-yl)propanenitrile] | 10 to 100 nM | 10 to 100 nM | 10 to 100 nM | 100 to 1000 nM |
